The subject of one experiment is THP-1 cells. Nature of the experiment: THP-1 soluble protein assay (human monocytic THP-1 cell differentiation assay). Format: cell-based. The note with it: read-out: THP % inhibition at 3µM, LPS-stimulated THP-1 cells. The text has this: Mitogenic stimulation of THP-1 cells cause differentiation into macrophage like cells with concomitant secretion of tumor necrosis factor (TNF-•) and TNF receptor (TNF-R p75/80 and TNF-R p55/60) and Interleukin-8 (IL-8), among other proteins. In addition, non-stimulated THP-1 cells shed both the p75/80 and the p55/60 receptors over time. […] THP-1 cells (from ATCC) are a human monocytic cell line which were obtained from the peripheral blood of a person with acute monocytic leukemia. They can be grown in culture and differentiated into macrophage like cells by stimulation with mitogens. For the assay, THP-1 cells are seeded from an ATCC stock which was previously grown and frozen back at 5 x 10^6/ml/vial. […] Each vial of cells are cultured for about two weeks prior to being used for an assay and then are used for only 4 to 6 weeks to screen compounds. Cells are subcultured on Mondays and Thursdays to a concentration of 1 x 10^5/ml. […] At the same time, […] of drug, vehicle or THP-1 media is plated in appropriate wells to give a final volume of 1.2 ml/well. […] Cell exposure to DMSO was limited to 0.1 % final concentration. Positive control wells were included in the experiment which had mitogen added but no drug. Vehicle control wells were included as well, which were identical to the positive control wells, except that DMSO was added to give a final concentration of 0.083%. Negative control wells were included in the experiment which had vehicle but no mitogen or drug added to the cells. Compounds can be evaluated for their effect on basal (non-stimulated) shedding of the receptors by replacing the LPS with […] of THP-1 media. Plates are placed into an incubator set at 5% CO2 and at 37 °C. After 4 hours of incubation, […] of tissue culture supernatant (TCS) is removed for use in an TNF-α ELISA. Following 24 hours of incubation, […] of TCS is removed and used for analysis in TNF-R p75/80, TNF-R p55/60 and IL-8 ELISAs. In addition, at the 24 hours timepoint, and the cells for each treatment group are collected by resuspension in 500 µl/well of THP-1 media and transferred into a FACS tube. Two ml/tube of a 0.5 mg/ml stock of propidium iodide (PI) (Boerhinger Mannheim cat. # 1348639) is added. The samples are run on a Becton Dickinson FaxCaliber FLOW cytometry machine and the amount of dye taken up by each cell is measured in the high red wavelength (FL3). Only cells with compromised membranes (dead or dying) can take up PI. The percent of live cells is calculated by the number of cells not stained with PI, divided by the total number of cells in the sample. The viability values calculated for the drug treated groups were compared to the viability value calculated for the vehicle treated mitogen stimulated group ("vehicle positive control") to determine the "percent change from control". This "percent change from control" value is an indicator of drug toxicity. The quantity of soluble TNF-α, TNF-R p75/80 and TNF-R p55/60 and IL-8 in the TCS of the THP-1 cell cultures are obtained with commercially available ELISAs from R&D Systems, by extrapolation from a standard curve generated with kit standards. The number of cells that either take up or exclude PI are measured by the FLOW cytometry machine and visualized by histograms using commercially available Cytologic software for each treatment group including all controls. […]

Experiment [1] concerns the target TNF-α converting enzyme (TACE) (Homo sapiens, UniProt P78536). Briefly: TACE inhibition (fluorescent peptidyl substrate). In kind it is biochemical.
Procedure: Using 96-well black microtiter plates, each well receives a solution composed of 10 µL TACE (final concentration 1µg/mL), 70µL Tris buffer, pH 7.4 containing 10% glycerol (final concentration 10 mM), and 10 µL of test compound solution in DMSO (final concentration 1µM, DMSO concentration <1%) and incubated for 10 minutes at room temperature.
The reaction is read (excitation 340 nm, emission 420 nm) for 10 min. and the increase in fluorescence over time is plotted as a linear line. The slope of the line is calculated and represents the reaction rate.
The linearity of the reaction rate is confirmed (r^2 >0.85). The mean (x±em) of the control rate is calculated and compared for statistical significance (p<0.05) with drug-treated rates using Dunnett's multiple comparison test.
A further experiment concerns the target MMP-9 (Homo sapiens, UniProt P14780). Briefly: MMP-9 inhibition (thiopeptide or fluorescent peptide substrate). Format: biochemical.
For another experiment, the target named is MMP-13 (Homo sapiens, UniProt P45452). Briefly: MMP-13 inhibition (thiopeptide or fluorescent peptide substrate). In kind it is biochemical.

Each structure is given as a SMILES string. Where two headings read alike, the source gives them in different places.

Chain of MMP-9 (P14780 94-707): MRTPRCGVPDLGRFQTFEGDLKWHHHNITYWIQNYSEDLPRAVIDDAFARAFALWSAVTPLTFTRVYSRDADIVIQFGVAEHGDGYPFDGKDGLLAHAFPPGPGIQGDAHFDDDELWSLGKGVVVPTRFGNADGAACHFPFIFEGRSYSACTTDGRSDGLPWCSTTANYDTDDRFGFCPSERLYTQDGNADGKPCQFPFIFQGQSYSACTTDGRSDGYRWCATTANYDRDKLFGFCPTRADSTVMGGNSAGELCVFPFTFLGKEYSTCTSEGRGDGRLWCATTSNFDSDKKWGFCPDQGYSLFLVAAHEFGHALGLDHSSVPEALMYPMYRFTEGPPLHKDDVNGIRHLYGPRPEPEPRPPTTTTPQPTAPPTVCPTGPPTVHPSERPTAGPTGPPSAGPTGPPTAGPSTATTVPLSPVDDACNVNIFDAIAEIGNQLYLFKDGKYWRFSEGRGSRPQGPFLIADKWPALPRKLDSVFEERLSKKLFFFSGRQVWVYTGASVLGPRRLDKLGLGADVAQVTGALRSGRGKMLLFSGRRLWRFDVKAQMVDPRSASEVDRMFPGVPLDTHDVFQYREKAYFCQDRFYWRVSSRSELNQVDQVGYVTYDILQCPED
Chain of TNF-α converting enzyme (TACE) (P78536 215-824, species assumed): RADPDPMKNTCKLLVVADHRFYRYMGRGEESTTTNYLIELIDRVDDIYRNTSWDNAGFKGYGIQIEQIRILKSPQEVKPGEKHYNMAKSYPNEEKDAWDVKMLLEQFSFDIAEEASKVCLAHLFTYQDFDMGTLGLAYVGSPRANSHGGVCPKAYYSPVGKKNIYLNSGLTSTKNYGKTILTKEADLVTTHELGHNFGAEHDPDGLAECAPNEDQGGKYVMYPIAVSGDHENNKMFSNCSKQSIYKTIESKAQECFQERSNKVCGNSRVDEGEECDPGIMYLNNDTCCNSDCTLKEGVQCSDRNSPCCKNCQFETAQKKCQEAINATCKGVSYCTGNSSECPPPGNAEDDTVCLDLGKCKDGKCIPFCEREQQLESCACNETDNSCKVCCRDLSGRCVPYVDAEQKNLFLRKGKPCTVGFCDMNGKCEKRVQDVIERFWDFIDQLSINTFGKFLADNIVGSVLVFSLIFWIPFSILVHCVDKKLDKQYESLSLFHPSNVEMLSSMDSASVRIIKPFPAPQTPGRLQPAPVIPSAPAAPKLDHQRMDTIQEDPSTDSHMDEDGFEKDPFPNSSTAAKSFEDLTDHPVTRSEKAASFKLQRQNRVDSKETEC
Procedure for MMP-13: (§1) The enzyme activity is measured by the rate of the color increase. The thiopeptide substrate is made up fresh as a 20 mM stock in 100% DMSO and the DTNB is dissolved in 100% DMSO as a 100 mM stock and stored in the dark at room temperature. Both the substrate and DTNB are diluted together to 1 mM with substrate buffer (50 mM HEPES pH 7.5, 5 mM CaCl2) before use. The stock of enzyme is diluted with buffer (50 mM HEPES, pH 7.5, 5 mM CaCl2, 0.02% Brij) to the desired final concentration.
(§2) Alternatively, a fluorescent peptide substrate is used. In this test procedure, the peptide substrate contains a fluorescent group and a quenching group. Upon cleavage of the substrate by an MMP, the fluorescence that is generated is quantitated on the fluorescence plate reader. The assay is run in HCBC assay buffer (50mM HEPES, pH 7.0, 5 mM Ca^+2, 0.02% Brij, 0.5% Cysteine), with human recombinant MMP-1, MMP-9, or MMP-13. The substrate is dissolved in methanol and stored frozen in 1 mM aliquots. For the assay, substrate and enzymes are diluted in HCBC buffer to the desired concentrations. Compounds are added to the 96 well plate containing enzyme and the reaction is started by the addition of substrate.
(§3) For either the thiopeptide or fluorescent peptide test procedures, the slope of the line is calculated and represents the reaction rate. The linearity of the reaction rate is confirmed (r^2 >0.85).
Procedure for MMP-9: as §1, §2, §3

For `CC#CCOc1ccc(S(=O)(=O)N(C)c2c(C(=O)NO)cnc3snc(C)c23)cc1` [Example 13, 4-[(4-But-2-ynyloxy-benzenesulfonyl)-methyl-amino]-3-methyl-isothiazolo[5,4-b]pyridine-5-carboxylic acid hydroxyamide], the inhibition at 3 µM with THP-1 cells turned out to be 42%. Further, the IC50 in experiment [1] is 0.014 µM; on MMP-9, 0.095 µM; on MMP-13 it was 0.034 µM.

Consider `CC#CCOc1ccc(S(=O)(=O)N(C)c2c(C(=O)NO)cnc3c(OC)cccc23)cc1` [Example 11, 4-[(4-But-2-ynyloxy-benzenesulfonyl)-methyl-amino]-8-methoxy-quinoline-3-carboxylic acid hydroxyamide], for which the inhibition at 3 µM in the experiment with THP-1 cells was 58%. Moreover, the IC50 in experiment [1] came out at 0.017 µM; against MMP-9, 0.033 µM; at MMP-13 (read-out: MMP-13 IC50), 0.0092 µM.

In the case of `CC#CCOc1ccc(S(=O)(=O)N(C)c2c(C(=O)NO)cnc3onc(C)c23)cc1` [Example 9, 4-[(4-But-2-ynyloxy-benzenesulfonyl)-methyl-amino]-3-methyl-isoxazolo[5,4-b]pyridine-5-carboxylic acid hydroxyamide], the inhibition at 3 µM in the experiment with THP-1 cells stood at 57%. The IC50 in experiment [1] came to 0.0059 µM; against MMP-9, 0.244 µM; against MMP-13, 0.15 µM.

Turning to `CC#CCOc1ccc(S(=O)(=O)N(C)c2c(C(=O)NO)cnc3c(Br)cccc23)cc1` [Example 99, 8-Bromo-4-[{[4-(2-butynyloxy)phenyl]sulfonyl} (methyl)amino]-N-hydroxy-3-quinolinecarboxamide], the inhibition at 3 µM in the experiment on THP-1 cells is 32%. Besides, the IC50 was found to be 0.082 µM in experiment [1] (read-out: TACE IC50) and 0.027 µM on MMP-13 (read-out: MMP-13 IC50).

As to `CC#CCOc1ccc(S(=O)(=O)N(C)c2c(C(=O)NO)cnc3c2c(C)nn3C)cc1` [Example 7, 4-[(4-But-2-ynyloxy-benzenesulfonyl)-methyl-amino]-1,3-dimethyl-1H-pyrazolo[3,4-b]pyridine-5-carboxylic acid hydroxyamide], in the experiment with THP-1 cells, the inhibition at 3 µM is 60%. The IC50 was determined as 0.03 µM in experiment [1] and 0.116 µM against MMP-9.

What is called inhibition is how much of the control response was suppressed. Broadly, the IC50 is the point on the concentration scale where inhibition reaches its midpoint.

Source of the values: patent EP1157024B1, “ACETYLENIC ORTHO-SULFONAMIDO AND PHOSPHINIC ACID AMIDO BICYCLIC HETEROARYL HYDROXAMIC ACIDS AS TACE INHIBITORS” (American Cyanamid Company, priority 1999, dated 2000).
